Reference: US20200325518A1, “Systems and Methods for Metabolic Assessment Utilizing 1-Methoxy-PMS Field” (priority 2019, published 2020)
In brackets after ≈: the same amount, converted by molar mass. Where two headings read alike, the source gives them in different places.

Assays:
E. coli = test: CLSI overnight reference method MIC of antimicrobials against E. coli strains; type: cell-based; settings: for MIC (CLSI Ref): unit assumed
P. aeruginosa = test: Rapid AST by surface binding of europium probe with time resolved fluorescence; type: cell-based; settings: Pseudomonas aeruginosa
Protocol: The x-axis of each graph denotes the concentrations of antimicrobial Amikacin (AMK) in micrograms/milliliter, and the y-axis denotes fluorescence from binding to bacteria surface. Growth check data measured by optical density (Absorbance at 600 nm) of the bacterial culture is denoted for each strain.
AST was performed by surface binding of probe followed by time resolved fluorescence. The P aeruginosa strains were incubated at 35° C. in shaking conditions for 4 hours for attaining growth, and growth check was performed by measuring absorbance of the culture at 600 nm after 4 hours of growth.

[1] = E. coli strain Clinical Sample 1
[2] = E. coli strain Clinical Sample 2
[3] = E. coli strain Clinical Sample 4
[4] = E. coli strain Clinical Sample 5
[5] = E. coli strain Clinical Sample 6
[6] = E. coli strain Clinical Sample 7
[7] = E. coli strain Clinical Sample 8
[8] = E. coli strain Clinical Sample 9
[9] = E. coli strain Clinical Sample 10
[10] = E. coli strain Clinical Sample 11
[11] = E. coli strain Clinical Sample 12
[12] = E. coli strain Clinical Sample 13

Compound | MIC (CLSI Ref) (E. coli; E. coli strain BEI 4.097) [µg/mL] | MIC (CLSI Ref) (E. coli; E. coli strain CDC Carba36) [µg/mL] | MIC (CLSI Ref) (E. coli; [1]) [µg/mL] | MIC (CLSI Ref) (E. coli; [2]) [µg/mL] | MIC (CLSI Ref) (E. coli; [3]) [µg/mL] | MIC (CLSI Ref) (E. coli; [4]) [µg/mL] | MIC (CLSI Ref) (E. coli; [5]) [µg/mL] | MIC (CLSI Ref) (E. coli; [6]) [µg/mL] | MIC (CLSI Ref) (E. coli; [7]) [µg/mL] | MIC (CLSI Ref) (E. coli; [8]) [µg/mL] | MIC (CLSI Ref) (E. coli; [9]) [µg/mL] | MIC (CLSI Ref) (E. coli; [10]) [µg/mL] | MIC (CLSI Ref) (E. coli; [11]) [µg/mL] | MIC (CLSI Ref) (E. coli; [12]) [µg/mL] | CLSI breakpoint interpretation (E. coli; [2]) | MIC (P. aeruginosa; P. aeruginosa Strain 1, growth check value 2.18, 4 hours growth, read-out: MIC) [µg/mL] | MIC (P. aeruginosa; P. aeruginosa Strain 2, growth checkpoint value 1.13, no reliable MIC data obtained, read-out: MIC expected) [µg/mL]
C[C@@H](O)[C@H]1C(=O)N2C(C(=O)O)=C(S[C@@H]3CN[C@H](C(=O)N(C)C)C3)[C@H](C)[C@H]12 [MEM, Meropenem] | < 0.06 | < 0.06 | < 0.06 | < 0.06 | < 0.06 | < 0.06 | < 0.06 | < 0.06 | < 0.06 | < 0.06 | < 0.06 | < 0.06 | < 0.06 | < 0.06 |  |  | 
C[C@@H](O)[C@H]1C(=O)N2C(C(=O)O)=C(S[C@@H]3CN[C@H](C(=O)Nc4cccc(C(=O)O)c4)C3)[C@H](C)[C@H]12 [ERT, Ertapenem] | 0.008 | 0.12 | 0.008 | 0.015 | 0.008 | 0.008 | 0.008 | 0.008 | 0.25 | 0.12 | 0.008 | 0.008 | 0.008 | 0.016 |  |  | 
CN(C)[C@@H]1C(=O)C(C(N)=O)=C(O)[C@@]2(O)C(=O)C3=C(O)c4c(O)cccc4[C@@](C)(O)[C@H]3C[C@@H]12 [TET, Tetracycline] | 32 | 8 | 4 | > 32 | 4 | > 32 | 2 | 4 | 8 | 4 | 4 | 4 | 4 | 4 | R |  | 
Gentamycin | 0.5 | 2 | 0.5 | 4 | 0.5 | 2 | 0.5 | 0.5 | 1 | 1 | > 16 | 2 | 1 | 1 |  |  | 
CC(C)(O/N=C(\C(=O)N[C@@H]1C(=O)N2C(C(=O)[O-])=C(C[n+]3ccccc3)CS[C@H]12)c1csc(N)n1)C(=O)O [CAZ, Ceftazidime] | 0.25 | 4 | 0.25 | 2 | 0.25 | 0.25 | 0.12 | 0.25 | > 32 | > 32 | 0.12 | 0.25 | 0.12 | 0.12 |  |  | 
NCC[C@H](O)C(=O)N[C@@H]1C[C@H](N)[C@@H](O[C@H]2O[C@H](CN)[C@@H](O)[C@H](O)[C@H]2O)[C@H](O)[C@H]1O[C@H]1O[C@H](CO)[C@@H](O)[C@H](N)[C@H]1O [AMK, Amikacin] | 4 | 4 | 4 | 4 | 4 | 4 | 4 | 2 | 4 | 4 | 8 | 4 | 4 | 4 |  | 8 (≈ 13.7 µM) | 8 (≈ 13.7 µM)
C[C@H]1COc2c(N3CCN(C)CC3)c(F)cc3c(=O)c(C(=O)O)cn1c23 [LVX, Levofloxacin] | < 0.06 | > 8 | < 0.06 | < 0.06 | > 8 | > 8 | < 0.06 | < 0.06 | < 0.06 | > 8 | 8 | < 0.06 | 0.5 | < 0.06 |  |  | 
Colistin [CST] | 0.12 | 0.25 | 0.12 | 0.12 | 0.25 | 0.25 | 0.12 | 0.12 | 0.12 | 0.5 | 0.25 | 0.5 | 0.25 | 0.25 |  |  | 
Piperacillin/tazobactam [TZP] | 4 | 128 | 4 | 8 | 4 | 4 | 2 | 4 | 32 | > 128 | 2 | 2 | 2 | 32 |  |  | 
